Laboratory results reported in patent US10173971B2, “Picolinamides with fungicidal activity” (DOW AGROSCIENCES LLC, priority 2014, dated 2019).
Like-named read-outs stand apart in the source and are kept apart here.

Key:
[1] = system: Zymoseptoria tritici; experiment: Fungicidal activity: leaf blotch of wheat (SEPTTR), wheat seedlings, booth sprayer to run-off or track spray; type: in vivo; conditions: for pest or weed control at 100 ppm: High-Volume Cereal Activity at 100 ppm; for pest or weed control at 121.5 g/ha: Low-Volume Cereal Activity at 121.5 g/H
[2] = system: Phakopsora pachyrhizi; experiment: Fungicidal activity: Asian soybean rust (PHAKPA), soybean seedlings; conditions: 25 ppm, soybean plants (variety Williams 82); for Disease Control PHAKPA 1DP: 1 Day Protectant; for Disease Control PHAKPA 3DC: 3 Day Curative
[3] = system: Puccinia triticina; experiment: Fungicidal activity: wheat brown rust (PUCCRT), wheat seedlings, booth sprayer to run-off or track spray; type: in vivo; conditions: for pest or weed control at 100 ppm: High-Volume Cereal Activity at 100 ppm; for pest or weed control at 121.5 g/ha: Low-Volume Cereal Activity at 121.5 g/H
[4] = 24 h, 1 Day Protectant, read-out: SEPTTR 1DP
[5] = 72 h, 3 Day Curative, read-out: SEPTTR 3DC
[6] = 24 h, 1 Day Protectant, read-out: PUCCRT 1DP
[7] = 72 h, 3 Day Curative, read-out: PUCCRT 3DC
[8] = 3DC (Day Curative), read-out: PUCCRT 3DC

| Compound | pest or weed control at 100 ppm [1, 4] [%] | pest or weed control at 121.5 g/ha [1, 4] [%] | pest or weed control at 121.5 g/ha [1, 5] [%] | pest or weed control at 100 ppm ([1]; 3DC (Day Curative), read-out: SEPTTR 3DC) [%] | Disease Control PHAKPA 1DP [2] | Disease Control PHAKPA 3DC [2] | pest or weed control at 100 ppm [3, 6] [%] | pest or weed control at 121.5 g/ha [3, 6] [%] | pest or weed control at 121.5 g/ha [3, 7] [%] | pest or weed control at 100 ppm [3, 8] [%] |
| --- | --- | --- | --- | --- | --- | --- | --- | --- | --- | --- |
| CCCO[C@H](CC)[C@@H](Cc1ccccc1)[C@H](C)OC(=O)[C@H](C)NC(=O)c1nccc(OC)c1OCOC(C)=O [compound 169] | 80 to 100 | 80 to 100 | 80 to 100 | 80 to 100 | A (80-100) | B (More than 0-Less than 80) | 80 to 100 | 80 to 100 | 80 to 100 | 80 to 100 |
| COc1ccnc(C(=O)N[C@@H](C)C(=O)O[C@@H](C)[C@@H](COCc2ccccc2)Cc2ccccc2)c1OCOC(C)=O [compound 240] | – | 0 to 80 | 80 to 100 | – | A (80-100) | B (More than 0-Less than 80) | – | 80 to 100 | 80 to 100 | – |
| COc1ccnc(C(=O)N[C@@H](C)C(=O)O[C@@H](C)[C@H](Cc2ccccc2)C(C)(C)OCc2ccccc2)c1OCOC(C)=O [compound 242] | – | 80 to 100 | 80 to 100 | – | B (More than 0-Less than 80) | – | – | 80 to 100 | 80 to 100 | – |
| CC[C@H](NC(=O)c1nccc(OC)c1OCOC(C)=O)C(=O)O[C@@H](C)C(Cc1cccc(OC)c1)Cc1cccc(OC)c1 [compound 275] | – | 0 to 80 | – | – | – | – | – | 80 to 100 | 0 to 80 | – |
| COc1ccc(CC(Cc2ccc(OC)cc2)[C@H](C)OC(=O)[C@H](C)NC(=O)c2nccc(OC)c2OCOC(C)=O)cc1 [compound 276] | – | 80 to 100 | 0 to 80 | – | – | – | – | 80 to 100 | – | – |
| CC[C@H](NC(=O)c1nccc(OC)c1OCOC(C)=O)C(=O)O[C@@H](C)C(Cc1ccc(OC)cc1)Cc1ccc(OC)cc1 [compound 277] | – | 80 to 100 | – | – | – | – | – | 80 to 100 | 0 to 80 | – |
| COc1ccc(C[C@@H]([C@H](C)OC(=O)[C@H](C)NC(=O)c2nccc(OC)c2OCOC(C)=O)C(C)(C)OCC2CC2)cc1 [compound 278] | – | 0 to 80 | 0 to 80 | – | – | – | – | 80 to 100 | 0 to 80 | – |
| COc1ccc(C[C@@H]([C@H](C)OC(=O)[C@H](C)NC(=O)c2nccc(OC)c2OCOC(C)=O)C(C)(C)Oc2ccc(F)cc2F)cc1 [compound 279] | – | 0 to 80 | 80 to 100 | – | – | – | – | 80 to 100 | 0 to 80 | – |
| COc1ccc(C[C@H](COCC2CC2)[C@H](C)OC(=O)[C@H](C)NC(=O)c2nccc(OC)c2OCOC(C)=O)cc1 [compound 280] | – | 0 to 80 | 80 to 100 | – | – | – | – | 80 to 100 | 80 to 100 | – |
| COc1ccc(C[C@H](COCC2CC2)[C@H](C)OC(=O)[C@H](C)NC(=O)c2nccc(OC)c2OCOC(C)=O)cc1Cc1ccccc1 [compound 281] | – | 0 to 80 | 80 to 100 | – | – | – | – | 80 to 100 | 0 to 80 | – |
| COc1ccc(C[C@H](COc2ccc(F)cc2F)[C@H](C)OC(=O)[C@H](C)NC(=O)c2nccc(OC)c2OCOC(C)=O)cc1 [compound 282] | – | 0 to 80 | 0 to 80 | – | – | – | – | 80 to 100 | – | – |
| CC[C@@H](c1ccccc1)[C@H](C)OC(=O)[C@H](C)NC(=O)c1nccc(OC)c1OC(C)=O [compound 283] | – | 0 to 80 | 80 to 100 | – | – | – | – | 80 to 100 | 80 to 100 | – |
| CC[C@H](Cc1ccc(C(F)(F)F)cc1)[C@@H](Cc1ccc(F)cc1)[C@H](C)OC(=O)[C@H](C)NC(=O)c1nccc(OC)c1O [compound 284] | 0 to 80 | – | – | – | – | – | 80 to 100 | – | – | 80 to 100 |
